# Where a name gives a salt, the structure may show the parent alone.
# System: P. falciparum malaria
# Assay: Phase 1/2 open-label imatinib monotherapy trial vs standard-of-care (SOC)
# Assay type: in vivo, human
# Protocol: Generic imatinib mesylate was purchased from TEVA Pharmaceuticals (Jerusalem, Israel) and was provided to patients in two 200 mg tablets per dose to conform with the usual quantity of imatinib indicated for treatment of chronic myelogenous leukemia. CV-Artecan, the standard-of-care (SOC) for treatment of P. falciparum malaria in Vietnam was purchased from OPC Pharmaceutical (Ho Chi Minh City, Vietnam) and was administered to patients as a tablet containing 40 mg dihydroartemisinin plus 320 mg piperaquine phosphate.
# P. falciparum-infected males of age 16-55 years with no complicating co-morbidities that had not received an anti-malarial drug within the previous 4 weeks were eligible for two trials, i.e., imatinib monotherapy and imatinib plus SOC (Im+SOC) triple combination therapy. Those individuals who met eligibility criteria and provided informed written consent were enrolled in the trial.
# The phase 1/2 “imatinib monotherapy trial” was an open-label trial aimed at determining the safety and tolerability of imatinib in adult male patients with uncomplicated P. falciparum malaria. Patients were randomly assigned to either a standard-of-care (SOC) control arm (n=8) in which they received 40 mg dihydroartemisinin plus 320 mg piperaquine phosphate orally twice (12 hours apart) on the first day and then once a day on the following 2 days, or an imatinib monotherapy arm (n=7) in which they received 400 mg of imatinib mesylate orally with a meal and full glass of water once a day for five days.
# During both trials, patient temperatures and peripheral blood parasite levels were monitored before, during and after the trial on days 0, 1, 2, 3, 5, 7, 28, and 42. Patients were also examined for the usual symptoms of P. falciparum malaria, including fever, chills, headache, fatigue, anorexia, and mild diarrhea.
# Primary endpoints for both studies were safety and tolerability. Secondary endpoints were reduction in parasitemia for the imatinib monotherapy study and both reduction in parasitemia and decline in pyrexia for the Im+SOC study. Safety and tolerability were assessed at protocol-specified time points and adverse events were classified as toxicities not normally associated with P. falciparum malaria, including edema, rashes, and severe diarrhea, etc. […] Attribution of imatinib to adverse events was assessed using a 5-point scale: not related, unlikely related, possibly related, probably related, and definitely related.
# A mixed ANOVA was conducted to determine the effect of drug treatment on parasitemia and pyrexia. Post-hoc multi-comparison testing was used to determine which time points were statistically different. […] SOC treatment cohorts from each individual trial were analyzed separately. […]
smiles,measurement,setting,value
"Cc1ccc(NC(=O)c2ccc(CN3CCN(C)CC3)cc2)cc1Nc1nccc(-c2cccnc2)n1 [imatinib, imatinib mesylate]",drug-related toxicity (analyses of blood parameters and body temperatures),400 mg imatinib orally once a day for five days,no evidence of drug-related toxicity
same,participants who experienced a rise in parasitemia and had to be transferred to SOC,"imatinib alone, n=7",two of the seven
same,"apparent accelerated decrease in pyrexia vs SOC (mixed ANOVA, FIG. 1D)",p-value=0.7029,did not achieve statistical significance
same,number of parasitized cells per microliter of blood (FIG. 1A),"peripheral blood, before, during and after treatment, n=7",decrease

# Source: patent US20250025461A1, “TREATMENT OF SEVERE AND UNCOMPLICATED MALARIA” (PURDUE RESEARCH FOUDATION, priority 2021, published 2025)
